Laboratory results from US20170138946A1, “BIOMARKERS FOR RESPONSE TO EZH2 INHIBITORS” (Memorial Sloan-Kettering Cancer Center, priority 2014, published 2017).

Assays:
Bap1 KO mice = Bap1 KO mice treated with EPZ011989 (genetic Bap1 KO trial); assay type: in vivo; conditions: 500 mg/kg BID orally for 16 days
From the text: FIG. 11A-K. Proliferation induced by Bap1 deletion is rescued by loss of Ezh2. (a) Western blot of H3K27me3 levels in histones purified from bone marrow of Bap1 KO, Ezh2 KO, Bap1/Ezh2 KO and control mice. (b) Representative images of spleens and (c) enumeration of spleen weight from the indicated genotypes of mice, 3 weeks post pIpC. (d) Peripheral white blood cell counts and (e) hematocrit percentages as quantified by a Hemavet. (f) Flow cytometric enumeration of myeloid progenitors (Lin^− c-Kit^+Sca1^−) and (g) Mature myeloid cells (Mac1^+Gr1^+) (h) Cell cycle analyses in myeloid progenitors using Ki67 and DAPI stain (n=3/group) (i) Western blot for H3K27me3 levels in mice (n=5/group) treated with EPZ011989 twice a day at 500 mg/kg for 16 days. (j) Spleen weights and (k) white blood cell counts after treatment. Unless otherwise indicated, […], n=5/Ezh2 KO, n=8/Bap1 KO, and n=11/Bap1/Ezh2 KO, Statistics were calculated with Student t-test; *p<0.05, **p<0.005; ±SEM values reported. Groups of 10 week old NOD-SCID mice were injected subcutaneously in the flank with 6-10×10^6 mesothelioma cell lines (MSTO-211H, Meso10, H226 and H2452) in a 1:1 mixture of matrigel and media. When tumors reached a size of approximately 60-80 mm^3, treatment with either vehicle (0.5% NaCMC+0.1% Tween-80 in water) or EPZ011989 was initiated. Either EPZ011989 or vehicle were given orally BID at a concentration of 500 mg/kg for the duration of the experiment. Tumor volumes were assessed in three dimensions using a caliper. Tumors or lung tissue were extracted following treatment and utilized for Western blotting to assess target inhibition. […] Researchers were not blinded in these experiments.

BAP1-mutant cell lines [1] = assay: 2D Cell Titer Glo viability assay with EPZ011989; assay type: cell-based, human; conditions: 2 week treatment at 1.25 μM, compared with wild-type cell lines
From the text: (§1) FIG. 16A-H. BAP1-mutant mesothelioma cell lines and xenograft models are sensitive to EZH2 inhibition. (a) Expression of EZH2 transcripts in TCGA mesothelioma patients compared to matched normals. (b) Annexin V assays in BAP1 wild-type and mutant cell lines expressing either empty vector or hairpins targeting EZH2. (c) Quantitation of Annexin V experiments in mesothelioma cell lines (d) Tumor size of Meso10 and H226 cell lines expressing EZH2 hairpins implanted into NOD-SCID mice, n=6/group. (e) 2D Cell Titer Glo viability assays after 2 week treatment with EPZ011989 at 1.25 μM. (f) 3D Cell Titer Glo viability assays after 3 weeks EPZ011989 treatment at 1.25 μM. (g) Tumor size formation from BAP1 mutant (MSTO and Meso10) or (h) wild-type cells (H226 and H2452) implanted into NOD-SCID mice and treated with either vehicle or 500 mg/kg BID EPZ011989. Tumors were measured 3× weekly, n=6/group. Target inhibition was assessed by histone western blots in extracted tumors (shown in respective figures). Lung pathology of H2452 cells with vehicle and EPZ1011989 treatment. Arrow indicates bulk metastasized tumor. Statistics were calculated with Student t-test; *p<0.05, **p<0.005; ±SEM values reported.

BAP1-mutant cell lines [2] = assay: 3D Cell Titer Glo viability assay with EPZ011989; assay type: cell-based, human; conditions: 3 weeks treatment at 1.25 μM, compared with wild-type cell lines
From the text: as §1

BAP1-mutant tumor = assay: Mesothelioma xenografts in NOD-SCID mice treated with EPZ011989, BAP1-mutant tumors; assay type: in vivo; conditions: 500 mg/kg BID
From the text: as §1, with “(g) Tumor size formation from BAP1 mutant (MSTO and Meso10) or (h) wild-type cells (H226 and H2452) implanted into NOD-SCID mice and treated with either vehicle or 500 mg/kg BID EPZ011989.” left out
(§2) Groups of 10 week old NOD-SCID mice were injected subcutaneously in the flank with 6-10×10^6 mesothelioma cell lines (MSTO-211H, Meso10, H226 and H2452) in a 1:1 mixture of matrigel and media. […] Tumor volumes were assessed in three dimensions using a caliper. […]

wild-type tumors = assay: Mesothelioma xenografts in NOD-SCID mice treated with EPZ011989, BAP1 wild-type tumors; assay type: in vivo; conditions: 500 mg/kg BID
From the text: as §1, with “Lung pathology of H2452 cells with vehicle and EPZ1011989 treatment. Arrow indicates bulk metastasized tumor.” left out
as §2

[3] = system: MSTO-211H and Meso10 cell lines overexpressing EZH2; assay: Sensitivity to EPZ011989 of cell lines overexpressing EZH2; assay type: cell-based, human; conditions: MSTO-211H and Meso10 overexpressing EZH2
From the text: (§3) FIG. 20A-D. BAP1 mutant cell lines are most sensitive to EZH2 inhibition. (a) Meso10 cell line overexpressing EZH2 increasingly proliferated after injection into the flank of NOD-SCID mice. (b) EZH2 was overexpressed in MSTO-211H and Meso10 cell lines. […] (c) BAP1-mutant cells became less invasive when treated with the EZH2 inhibitor GSK126. (d) E-Cadherin expression increased in the cell line H226 following treatment with GSK126.

BAP1-mutant cells = assay: Matrigel invasion assay with GSK126; assay type: cell-based, human; conditions: GSK126 0-2 μM for 7 days
Protocol: Mesothelioma cells (MSTO-211H, H2373, H226 and H2452) were seeded in T75 flasks (100,000 cells). 12 hours later the plated cells were treated with GSK126 (0-2 μM) (Chemitek) and then left to proliferate for 7 days. 250,000 treated cells were then placed on the top of a Matrigel invasion chamber (BD Biosciences, cat no. 354480) in serum free media while the lower chamber contained media with serum. 22 hours later the cells on the bottom of the membrane were stained with crystal violet and quantitated with ImageJ.

[4] = system: E-Cadherin expression in H226; assay: E-Cadherin expression after GSK126 treatment; assay type: cell-based, human; conditions: cell line H226
From the text: as §3

[5] = system: BAP1-mutant mesothelioma cells (H2452 xenografts); assay: H2452 xenografts in NOD-SCID mice treated with GSK126; assay type: in vivo
Protocol: FIG. 21A-C. BAP1-mutant mesothelioma cell lines and xenograft models are sensitive to EZH2 inhibition. (a) Tumor volume of H2452 xenografts treated daily with GSK126 at 150 mg/kg or vehicle (n=10 mice per group). 5 mice from each group were euthanized following 16 days of treatment to assess H3K27me3 depletion. The remaining mice were treated for the remainder of the trial. (b) Histone ELISA and Western blot analysis of H3K27me3 levels in tumors from in vivo treated mice after 16 days treatment. (c) H&E staining, Ki67 staining and TUNEL staining of tumors extracted from vehicle treated and GSK126 treated mice, 10× magnification.
Next, whether EZH2 inhibition might inhibit the survival of BAP1-mutant mesothelioma cell lines was assessed. EZH2 silencing induced apoptosis in BAP1-mutant cell lines, whereas wild-type cell lines continued to proliferate (FIGS. 16B,C). EZH2 silencing abrogated in vivo tumor formation of BAP1-mutant but not wild-type cell lines (FIG. 16D). Overexpression of EZH2 in BAP1 wild-type cell lines increased proliferation (FIG. 20A) and sensitivity to EZH2 inhibition (FIG. 20B). […] Next, the impact of EZH2 inhibition in vivo was assessed. […] EZH2 inhibition abrogated pulmonary metastasis in a BAP1-mutant mesothelioma cell line with metastatic potential (FIG. 16G) consistent with a role for BAP1/EZH2 in metastasis (Harbour et al., 2010). EZH2 inhibition reduced invasion and increased E-Cadherin expression in vitro (FIGS. 20C-D). Next, the impact of EZH2 inhibition using the […] GSK126 was assessed. BAP1-mutant mesothelioma cells were injected into the flank of NOD-SCID mice, and then initiated treatment with either vehicle or 150 mg/kg GSK126 after tumor formation.

[6] = tumors extracted from treated mice, 150 mg/kg

Compound | splenomegaly (spleen weights) (Bap1 KO mice) | white blood cell counts (Bap1 KO mice) | H3K27me3 (Bap1 KO mice; Western blot) | sensitivity of BAP1-mutant cell lines in 2D culture (BAP1-mutant cell lines [1]) | sensitivity of BAP1-mutant cell lines in 3D culture (BAP1-mutant cell lines [2]) | BAP1-mutant tumor size (BAP1-mutant tumor; compared to vehicle treated mice) | pulmonary metastasis (BAP1-mutant tumor; BAP1-mutant mesothelioma cell line with metastatic potential (H2452)) | response of wild-type tumors (tumor size) (wild-type tumors) | sensitivity with EZH2 overexpression [3] | invasion (BAP1-mutant cells) | E-Cadherin expression [4] | tumor size ([5]; 150 mg/kg daily, compared to vehicle treated mice) | H3K27me3 in tumors in vivo ([5]; 150 mg/kg, after 16 days treatment, histone ELISA and Western blot) | Ki67 staining [5, 6] | TUNEL staining [5, 6]
CCN(c1cc(C#CCN2CCOCC2)cc(C(=O)NCc2c(C)cc(C)[nH]c2=O)c1C)[C@H]1CC[C@H](N(C)CCOC)CC1 [EPZ011989] | decreased | decreased | decreased | more sensitive | more sensitive | significantly reduced | abrogated | less/not responsive | increasingly sensitive |  |  |  |  |  | 
CC[C@H](C)n1cc(C)c2c(C(=O)NCc3c(C)cc(C)[nH]c3=O)cc(-c3ccc(N4CCNCC4)nc3)cc21 [GSK126] |  |  |  |  |  |  |  |  |  | less invasive | increased | significantly reduced | significantly attenuated | reduced | increased
